Reference: patent publication EP0343367A1, “Mercapto-compounds having mucolytic action and a process for their preparation” (CAMILLO CORVI S.p.A., priority 1988, dated 1989)
Like-named read-outs stand apart in the source and are kept apart here.

Legend:
[1] = test system: healthy rabbit; experiment: Production of mucus in the healthy rabbit (method of R. Scuri et al.); type: in vivo; settings: Oryctolagus cuniculus, administration route: oral
Source text: (§1) The following table indicates e.g. the bronchial secretion stimulating and mucolytic activity of the compound 10 (R⁴=H, R⁵=OH) as compared to sobrerol.

[2] = test system: rat; experiment: Expectorating activity in the rat (method of K. Kogi et al.); type: in vivo; settings: os, read-out: Expectorating activity in the rat, ED₅₀ os
Source text: as §1

[3] = read-out: Production of mucus in the healthy rabbit: No.of animals/increase, ED₅₀
[4] = read-out: Production of mucus in the healthy rabbit: Production of mucus, ED₅₀

SMILES | ED50 [1, 3] [mg/kg] | ED50 [1, 4] [mg/kg] | ED50 [2] [mg/kg]
CC1=CCC(C(C)(C)O)CC1O (stereo not drawn) [Sobrerol] | 500 | 500 | 40
CC(C)(O)C1CC=C(CS)C(O)C1 (stereo not drawn) [Compound 10, 2-hydroxy-4-(1-hydroxy-1-methylethyl)-6-cyclohexene-1-methanethiol] | 400 | 400 | 100
